Laboratory results from patent US20250353842A1, “BICYCLIC AMINE CDK12 INHIBITORS” (Incyte Corporation, priority 2022, published 2025).

Molecular target: CDK12 complexed with Cyclin K (Homo sapiens (Human), UniProt Q9NYV4)
Assay: CDK enzymatic assay (HTRF, LANCE Ultra kinase assay)
Format: biochemical
Details: 60 minutes pre-incubation, 1 mM ATP
Description: The following activity of the CDK enzymes in complex with their respective cyclins we assayed: CDK1 complexed with Cyclin B1; CDK2 complexed with Cyclin E1; CDK4 complexed with Cyclin D1; CDK6 complexed with Cyclin D1; CDK6 complexed with Cyclin D3; CDK9 complexed with Cyclin T1; CDK7 complexed with Cyclin H/MAT1; CDK2 complexed with Cyclin A2; CDK5 complexed with p35; CDK12 complexed with Cyclin K; CDK13 complexed with Cyclin K. These in vitro enzyme activity are assayed using homogeneous time-resolved energy transfer (HTRF), which measures phosphorylation of a peptide substrate. The LANCE® Ultra kinase assay (PerkinElmer) uses a ULight™-labeled EIF4E-binding protein 1 (THR37/46) peptide (DYSTTPGGTLFSTTPGTRI) (SEQ ID NO: 1) substrate and a Europium-labeled anti-phospho-4E-BP1 antibody (CDK2, CDK1, CDK4, CDK6, CDK9, CDK12, CDK13) or ULight™-labeled Myelin Basic Protein peptide (VTPRTPPP) (SEQ ID NO: 2) substrate and a Europium-labeled anti-phospho-MBP antibody (CDK7). Each CDK enzyme activity assays utilized human CDK co-expressed as N-terminal GST-tagged protein with its full length cyclin partner using a baculovirus expression system.
Enzyme was pre-incubated with compounds for 30 minutes (CDK1,2,4,6,9) or 60 minutes (CDK7, CDK12, CDK13) prior to addition of ATP and Ulight-peptide (1 mM and 50 nM final, respectively), in assay buffer containing 50 mM HEPES pH 7.5, 1 mM EGTA, 10 mM MgCl2, 2 mM DTT, 0.05 mg/mL BSA, and 0.01% Tween 20.
The reaction was then incubated for 60-90 minutes at room temperature. The reactions were stopped by the addition of EDTA and Europium labeled antibody, for a final concentration of 15 mM and 1.0-1.5 nM, respectively. HTRF signals were read after 15-120 minutes. A ratio of fluorescence transferred to the labeled substrate (665 nm) relative to fluorescence of the Europium donor (620 nm) represents the extent of phosphorylation. Ratios for treated wells were normalized to DMSO only (100% activity) and no enzyme (0% activity) controls. Normalized data was analyzed using a three or four parameter dose response curve to determine IC50 for each compound and are shown in Table A. Control reference inhibitors were included on each plate.

Chain of CDK12 complexed with Cyclin K (Q9NYV4 whole entry): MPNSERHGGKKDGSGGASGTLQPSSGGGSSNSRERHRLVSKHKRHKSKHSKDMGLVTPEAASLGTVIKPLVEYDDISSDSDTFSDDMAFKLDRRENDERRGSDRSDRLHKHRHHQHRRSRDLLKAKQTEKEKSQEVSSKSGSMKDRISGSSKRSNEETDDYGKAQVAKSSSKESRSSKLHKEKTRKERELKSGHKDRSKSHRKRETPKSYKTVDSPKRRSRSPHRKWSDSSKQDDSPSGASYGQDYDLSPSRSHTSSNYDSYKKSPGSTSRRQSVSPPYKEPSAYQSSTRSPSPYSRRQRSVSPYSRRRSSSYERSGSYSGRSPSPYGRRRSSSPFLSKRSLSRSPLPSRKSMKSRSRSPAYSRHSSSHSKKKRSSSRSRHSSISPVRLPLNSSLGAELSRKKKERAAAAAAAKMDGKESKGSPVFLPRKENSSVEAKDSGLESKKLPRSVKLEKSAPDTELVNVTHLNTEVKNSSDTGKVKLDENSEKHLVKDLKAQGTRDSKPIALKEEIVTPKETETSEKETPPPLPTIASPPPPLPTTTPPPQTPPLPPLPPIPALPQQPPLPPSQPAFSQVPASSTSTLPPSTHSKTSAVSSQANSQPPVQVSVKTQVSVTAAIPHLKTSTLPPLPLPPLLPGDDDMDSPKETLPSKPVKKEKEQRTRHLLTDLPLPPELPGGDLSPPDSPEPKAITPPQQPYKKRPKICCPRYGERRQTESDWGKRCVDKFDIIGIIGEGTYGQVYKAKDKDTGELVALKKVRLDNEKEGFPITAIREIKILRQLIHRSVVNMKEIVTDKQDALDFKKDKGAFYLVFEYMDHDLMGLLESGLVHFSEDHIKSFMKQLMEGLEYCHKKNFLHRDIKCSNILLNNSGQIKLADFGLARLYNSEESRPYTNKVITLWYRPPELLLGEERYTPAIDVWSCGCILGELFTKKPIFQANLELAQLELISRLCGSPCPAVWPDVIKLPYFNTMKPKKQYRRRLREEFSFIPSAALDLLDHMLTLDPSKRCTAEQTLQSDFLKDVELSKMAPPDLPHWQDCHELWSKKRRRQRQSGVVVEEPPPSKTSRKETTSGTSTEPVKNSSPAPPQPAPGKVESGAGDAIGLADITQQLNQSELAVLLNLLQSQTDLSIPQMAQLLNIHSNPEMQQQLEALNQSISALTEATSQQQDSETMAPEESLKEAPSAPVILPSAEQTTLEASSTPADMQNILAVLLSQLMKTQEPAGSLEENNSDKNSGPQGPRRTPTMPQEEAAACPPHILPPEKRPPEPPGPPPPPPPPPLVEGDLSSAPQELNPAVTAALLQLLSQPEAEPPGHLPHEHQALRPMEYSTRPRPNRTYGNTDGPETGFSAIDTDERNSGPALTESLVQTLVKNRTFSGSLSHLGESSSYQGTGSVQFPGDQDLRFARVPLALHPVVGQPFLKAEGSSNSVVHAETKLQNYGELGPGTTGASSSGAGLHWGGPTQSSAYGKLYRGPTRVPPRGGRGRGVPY
Chain of CDK12 complexed with Cyclin K (O75909 whole entry partner): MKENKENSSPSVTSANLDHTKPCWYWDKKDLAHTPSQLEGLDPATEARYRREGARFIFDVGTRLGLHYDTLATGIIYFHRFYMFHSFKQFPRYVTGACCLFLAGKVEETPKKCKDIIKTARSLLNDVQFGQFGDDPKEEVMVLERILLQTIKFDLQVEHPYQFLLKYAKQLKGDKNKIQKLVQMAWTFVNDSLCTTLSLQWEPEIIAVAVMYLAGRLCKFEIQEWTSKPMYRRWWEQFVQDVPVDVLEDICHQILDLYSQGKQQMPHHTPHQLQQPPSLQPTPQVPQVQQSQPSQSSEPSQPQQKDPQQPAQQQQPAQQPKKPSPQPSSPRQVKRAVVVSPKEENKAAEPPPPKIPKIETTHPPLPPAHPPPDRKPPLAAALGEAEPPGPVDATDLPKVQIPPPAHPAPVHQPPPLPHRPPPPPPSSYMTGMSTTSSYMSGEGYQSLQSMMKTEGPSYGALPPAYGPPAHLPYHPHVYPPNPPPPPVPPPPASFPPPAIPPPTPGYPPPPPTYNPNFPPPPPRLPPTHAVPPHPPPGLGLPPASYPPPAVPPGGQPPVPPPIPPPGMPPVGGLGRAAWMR

Structure (SMILES)	IC50
N#Cc1cnc(N[C@@H]2CCC[C@H](n3cnc4cncc(Br)c43)C2)nc1-c1cnn(CC(F)F)c1 [Example 39, 2-(((1R,3S)-3-(7-Bromo-1H-imidazo[4,5-c]pyridin-1-yl)cyclohexyl)amino)-4-(1-(2,2-difluoroethyl)-1H-pyrazol-4-yl)pyrimidine-5-carbonitrile]	< 0.05 µM
N#Cc1cnc(N[C@@H]2CCC[C@H](n3cnc4cccc(Br)c43)C2)nc1-c1cnn(CC(F)F)c1 [Example 41, 2-(((1R,3S)-3-(7-Bromo-1H-benzo[d]imidazol-1-yl)cyclohexyl)amino)-4-(1-(2,2-difluoroethyl)-1H-pyrazol-4-yl)pyrimidine-5-carbonitrile]	< 0.05 µM
N#Cc1ccc2ncn([C@H]3CCC[C@@H](Nc4ncc(C#N)c(-c5cnn(CC(F)F)c5)n4)C3)c2c1 [Example 43, 1-((1S,3R)-3-((5-Cyano-4-(1-(2,2-difluoroethyl)-1H-pyrazol-4-yl)pyrimidin-2-yl)amino)cyclohexyl)-1H-benzo[d]imidazole-6-carbonitrile]	< 0.05 µM
N#Cc1cnc(N[C@@H]2CCC[C@H](n3cnc4cncc(Cl)c43)C2)nc1-c1cnn(CC(F)F)c1 [Example 45, 2-(((1R,3S)-3-(7-Chloro-1H-imidazo[4,5-c]pyridin-1-yl)cyclohexyl)amino)-4-(1-(2,2-difluoroethyl)-1H-pyrazol-4-yl)pyrimidine-5-carbonitrile]	< 0.05 µM
N#Cc1ccc2ncn([C@H]3CCC[C@@H](Nc4ncc(C#N)c(-c5cnn(CC(F)F)c5)n4)C3)c2n1 [Example 47, 3-((1S,3R)-3-((5-Cyano-4-(1-(2,2-difluoroethyl)-1H-pyrazol-4-yl)pyrimidin-2-yl)amino)cyclohexyl)-3H-imidazo[4,5-b]pyridine-5-carbonitrile]	< 0.05 µM
Cc1ncc(C#N)c2c1ncn2[C@H]1CCC[C@@H](Nc2ncc(C#N)c(-c3cnn(CC(F)F)c3)n2)C1 [Example 48, 1-((1S,3R)-3-((5-Cyano-4-(1-(2,2-difluoroethyl)-1H-pyrazol-4-yl)pyrimidin-2-yl)amino)cyclohexyl)-4-methyl-1H-imidazo[4,5-c]pyridine-7-carbonitrile]	< 0.05 µM
N#Cc1cc(C(F)(F)F)cc2ncn([C@H]3CCC[C@@H](Nc4ncc(C(F)(F)F)c(-c5cnn(CC(F)F)c5)n4)C3)c12 [Example 51, 1-((1S,3R)-3-((4-(1-(2,2-Difluoroethyl)-1H-pyrazol-4-yl)-5-(trifluoromethyl)pyrimidin-2-yl)amino)cyclohexyl)-5-(trifluoromethyl)-1H-benzo[d]imidazole-7-carbonitrile]	0.05 to 0.5 µM
N#Cc1cncc2ncn([C@H]3CCC[C@@H](Nc4ncc(C(F)(F)F)c(-c5cnn(CC(F)F)c5)n4)C3)c12 [Example 52, 1-((1S,3R)-3-((4-(1-(2,2-Difluoroethyl)-1H-pyrazol-4-yl)-5-(trifluoromethyl)pyrimidin-2-yl)amino)cyclohexyl)-1H-imidazo[4,5-c]pyridine-7-carbonitrile]	< 0.05 µM
N#Cc1cc2ncn([C@H]3CCC[C@@H](Nc4ncc(C#N)c(-c5cnn(CC(F)F)c5)n4)C3)c2[n+]([O-])c1 [Example 53, 6-Cyano-3-((1S,3R)-3-((5-cyano-4-(1-(2,2-difluoroethyl)-1H-pyrazol-4-yl)pyrimidin-2-yl)amino)cyclohexyl)-3H-imidazo[4,5-b]pyridine 4-oxide]	< 0.05 µM
N#Cc1cnc2c(c1)ncn2[C@H]1CCC[C@@H](Nc2ncc(-c3cn[nH]c3)c(-c3cnn(CC(F)F)c3)n2)C1 [Example 57, 3-((1S,3R)-3-((4-(1-(2,2-Difluoroethyl)-1H-pyrazol-4-yl)-5-(1H-pyrazol-4-yl)pyrimidin-2-yl)amino)cyclohexyl)-3H-imidazo[4,5-b]pyridine-6-carbonitrile]	0.05 to 0.5 µM
CC(C)(O)Cn1cc(-c2nc(N[C@@H]3CCC[C@H](n4cnc5cc(C#N)cnc54)C3)ncc2C#N)cn1 [Example 58, 3-((1S,3R)-3-((5-Cyano-4-(1-(2-hydroxy-2-methylpropyl)-1H-pyrazol-4-yl)pyrimidin-2-yl)amino)cyclohexyl)-3H-imidazo[4,5-b]pyridine-6-carbonitrile]	< 0.05 µM
N#Cc1cnc2c(c1)ncn2[C@H]1CCC[C@@H](Nc2ncc(C#N)c(-c3cnn(C4CNC4)c3)n2)C1 [Example 59, 3-((1S,3R)-3-((4-(1-(Azetidin-3-yl)-1H-pyrazol-4-yl)-5-cyanopyrimidin-2-yl)amino)cyclohexyl)-3H-imidazo[4,5-b]pyridine-6-carbonitrile]	< 0.05 µM
N#Cc1cnc2c(c1)ncn2[C@H]1CCC[C@@H](Nc2ncc(C#N)c(-c3cnn(CCN4CCOCC4)c3)n2)C1 [Example 60, 3-((1S,3R)-3-((5-Cyano-4-(1-(2-morpholinoethyl)-1H-pyrazol-4-yl)pyrimidin-2-yl)amino)cyclohexyl)-3H-imidazo[4,5-b]pyridine-6-carbonitrile]	0.05 to 0.5 µM
Cn1cnc(-c2nc(N[C@@H]3CCC[C@H](n4cnc5cc(C#N)cnc54)C3)ncc2C#N)c1 [Example 61, 3-((1S,3R)-3-((5-Cyano-4-(1-methyl-1H-imidazol-4-yl)pyrimidin-2-yl)amino)cyclohexyl)-3H-imidazo[4,5-b]pyridine-6-carbonitrile]	< 0.05 µM
N#Cc1cnc2c(c1)ncn2[C@H]1CCC[C@@H](Nc2ncc(C#N)c(-c3cnn(CC(F)(F)F)c3)n2)C1 [Example 62, 3-((1S,3R)-3-((5-Cyano-4-(1-(2,2,2-trifluoroethyl)-1H-pyrazol-4-yl)pyrimidin-2-yl)amino)cyclohexyl)-3H-imidazo[4,5-b]pyridine-6-carbonitrile]	< 0.05 µM

Next, values leading:

IC50	Structure (SMILES)
< 0.05 µM	N#Cc1cnc(N[C@@H]2CCC[C@H](n3cnc4cc(F)cc(Br)c43)C2)nc1-c1cnn(CC(F)F)c1 [Example 40, 2-(((1R,3S)-3-(7-Bromo-5-fluoro-1H-benzo[d]imidazol-1-yl)cyclohexyl)amino)-4-(1-(2,2-difluoroethyl)-1H-pyrazol-4-yl)pyrimidine-5-carbonitrile]
< 0.05 µM	N#Cc1cnc(N[C@@H]2CCC[C@H](n3cnc4cnc(Cl)c(Br)c43)C2)nc1-c1cnn(CC(F)F)c1 [Example 42, 2-(((1R,3S)-3-(7-Bromo-6-chloro-1H-imidazo[4,5-c]pyridin-1-yl)cyclohexyl)amino)-4-(1-(2,2-difluoroethyl)-1H-pyrazol-4-yl)pyrimidine-5-carbonitrile]
< 0.05 µM	N#Cc1cc2c(cn1)ncn2[C@H]1CCC[C@@H](Nc2ncc(C#N)c(-c3cnn(CC(F)F)c3)n2)C1 [Example 46, 1-((1S,3R)-3-((5-Cyano-4-(1-(2,2-difluoroethyl)-1H-pyrazol-4-yl)pyrimidin-2-yl)amino)cyclohexyl)-1H-imidazo[4,5-c]pyridine-6-carbonitrile]
< 0.05 µM	N#Cc1cnc(N[C@@H]2CCC[C@H](n3cnc4cc(F)cc(C#N)c43)C2)nc1-c1cnn(CC(F)F)c1 [Example 49, 1-((1S,3R)-3-((5-Cyano-4-(1-(2,2-difluoroethyl)-1H-pyrazol-4-yl)pyrimidin-2-yl)amino)cyclohexyl)-5-fluoro-1H-benzo[d]imidazole-7-carbonitrile]
< 0.05 µM	N#Cc1cc(C#N)c2c(c1)ncn2[C@H]1CCC[C@@H](Nc2ncc(C#N)c(-c3cnn(CC(F)F)c3)n2)C1 [Example 50, 1-((1S,3R)-3-((5-Cyano-4-(1-(2,2-difluoroethyl)-1H-pyrazol-4-yl)pyrimidin-2-yl)amino)cyclohexyl)-1H-benzo[d]imidazole-5,7-dicarbonitrile]
< 0.05 µM	Cc1cc(F)cc2ncn([C@H]3CCC[C@@H](Nc4ncc(C#N)c(-c5cnn(CC(F)F)c5)n4)C3)c12 [Example 54, 4-(1-(2,2-Difluoroethyl)-1H-pyrazol-4-yl)-2-(((1R,3S)-3-(5-fluoro-7-methyl-1H-benzo[d]imidazol-1-yl)cyclohexyl)amino)pyrimidine-5-carbonitrile]
< 0.05 µM	Cc1cc(C#N)cc2ncn([C@H]3CCC[C@@H](Nc4ncc(C#N)c(-c5cnn(CC(F)F)c5)n4)C3)c12 [Example 55, 1-((1S,3R)-3-((5-Cyano-4-(1-(2,2-difluoroethyl)-1H-pyrazol-4-yl)pyrimidin-2-yl)amino)cyclohexyl)-7-methyl-1H-benzo[d]imidazole-5-carbonitrile]
> 0.5 µM	Cn1cc(-c2cnc(N[C@@H]3CCC[C@H](n4cnc5cc(C#N)cnc54)C3)nc2-c2cnn(CC(F)F)c2)cn1 [Example 56, 3-((1S,3R)-3-((4-(1-(2,2-Difluoroethyl)-1H-pyrazol-4-yl)-5-(1-methyl-1H-pyrazol-4-yl)pyrimidin-2-yl)amino)cyclohexyl)-3H-imidazo[4,5-b]pyridine-6-caronitrile]
